Key:
[1] = Bioequivalence test: blood plasma phenylbutazone levels (HPLC) after horses eat the product mixed in grain; format: in vivo, horse; parameters: unit not given here; settings: 4 g phenylbutazone in grain, oral, average of five horses
Experimental: The above product mixture was tested for bioequivalency as follows. Three healthy mature geldings and two non-pregnant mares aged 3-15 years with similar weights were chosen for a bioequivalence test. The bioequivalence test was designed to determine the difference in blood plasma absorption between commercially available phenylbutazone tablets and the inventive product mixture described above. […] At five o'clock p.m. the evening before the test, each horse was fed a normal meal consisting of 1 gallon of grain with fourteen percent protein, and ten pounds of alfalfa hay. During the test each horse was stabled separately and had access to drinking water at all times. On test day, each horse was fasted until administration of the test product, and then given a normal meal consisting of one gallon of grain with fourteen percent protein and ten pounds of alfalfa hay five hours post dosing and at twelve and one-half hours after administration. The morning of the test, 4.60 grams of the product from example one containing a total of four grams of phenylbutazone, was added to one half gallon of grain with fourteen percent protein by lightly stifling. Each horse was given 15 minutes to consume the grain. […] Each of the five horses followed this procedure. Two hours following administration a 4.5 cc blood sample was taken from each of the five horses. Thereafter, additional 4.5 cc blood samples were taken at half-hour intervals until the sixth hour. After the sixth hour 4.5 cc blood samples were taken hourly until the eighth hour. […] The blood samples were taken with a 20 gauge one inch needle and promptly put into a green CST Lithium Heparin tubes and cooled in ice water at 36 degrees F. When each sample was collected, the blood sample was spun to separate the blood plasma from each sample. The separated blood plasma was placed in a freezer for twenty-four hours at 20 below zero. After twenty-four hours, the blood plasma was thawed to room temperature and phenylbutazone levels were quantified for each sample by a validated HPLC method. Two weeks later after completing a wash out period, the same three healthy mature geldings and two non-pregnant mares aged 3-15 years with similar weights were used for a cross over bioequivalence test. This bioequivalence test was to determine the concentration levels in blood plasma absorption of commercially available phenylbutazone tablets. […] At five o'clock p.m. the evening before the test, each horse was fed a normal meal consisting of 1 gallon of grain with fourteen percent protein, and ten pounds of alfalfa hay. During the test each horse was stabled separately and had access to drinking water at all times. On test day, each horse was fasted until administration of the test product (4 grams of crushed active ingredient phenylbutazone in tablets), and then given a normal meal consisting of one gallon of grain with fourteen percent protein and ten pounds of alfalfa hay five hours post dosing, and at twelve and one-half hours after administration. The morning of the test, four 1 gram tablets of the commercially available phenylbutazone were crushed in to a fine powder, and were added to one half gallon of grain with fourteen percent protein by lightly stifling for each horse. Each horse was given 15 minutes to consume the grain. […] Each of the five horses followed this procedure. Two hours following administration a 4.5 cc blood sample was taken from each of the five horses. Thereafter, additional 4.5 cc blood samples were taken at half-hour intervals until the sixth hour. After the sixth hour 4.5 cc blood samples were taken hourly until the eighth hour. […] The blood samples were taken with a 20 gauge one inch needle and promptly put into a green CST Lithium Heparin tubes and cooled in ice water at 36 degrees F. When each sample was collected, the blood sample was spun to separate the blood plasma from each sample. The separated blood plasma was placed in a freezer for twenty-four hours at 20 below zero. […]

[2] = oral administration; cited from earlier work

CCCCC1C(=O)N(c2ccccc2)N(c2ccccc2)C1=O [Pure Phenylbutazone, 4-butyl-diphenyl-3,5-pyrazoidinedione]
blood plasma concentration of phenylbutazone ([1]; 2 hours after eating): 5.0 | blood plasma concentration of phenylbutazone ([1]; 3 hours after eating): 6.0 | blood plasma concentration of phenylbutazone ([1]; 4 hours after eating): 8.5 | blood plasma concentration of phenylbutazone ([1]; 5 hours after eating): 10.1 | blood plasma concentration of phenylbutazone ([1]; 6 hours after eating): 12.0 | blood plasma concentration of phenylbutazone ([1]; 7 hours after eating): 13.0 | blood plasma concentration of phenylbutazone ([1]; 8 hours after eating): 12.14 | blood plasma concentration of phenylbutazone ([1]; 10 hours after eating): 9.9 | blood plasma concentration of phenylbutazone ([1]; 12 hours after eating): 7.3 | blood plasma concentration of phenylbutazone ([1]; 18 hours after eating): 4.18 | time required to achieve an effective concentration level [2]: 3 to 5 h

— US8524759B2, “Phenylbutazone carrier formulation showing increased bioactivity in animals” (priority 2009, dated 2013)
